Reference: patent US20140186329A1, “POLYPHENOL ANALOGS TO TREAT ISCHEMIA” (priority 2011, published 2014)

What was measured:
HT22 cells = assay: Maintenance of total GSH in the presence of glutamate; assay type: cell-based, mouse; details: derivative 1-10 μM, 5 mM glutamate, 24 hr
In short: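 HT22 cells treated 24 hr with each derivative at 1-10 μM plus 5 mM glutamate, then extracts analysed for total GSH by chemical assay. Fisetin (10 μM) served as positive control.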

PC12 cells = assay: PC12 cell differentiation (neurite outgrowth); assay type: cell-based; details: N2 medium, derivative 1-10 μM, 24 hr, visual inspection
In short: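 PC12 cells in N2 medium were exposed to derivatives (1-10 μM) for 24 hr, with Fisetin (10 μM) as positive control. Cells counted as positive if bearing ≥1 neurite longer than one cell body diameter; 100 cells scored in each of three fields per treatment.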

Nrf2 = Nrf2 induction, SDS-PAGE and Western blotting of nuclear extracts; assay type: cell-based; details: cells treated 1, 2 and 4 hr
Protocol: For immunoblotting of Nrf2, nuclear extracts were prepared as described (Schreiber, et al., Nucleic Acids Res. (1989) 17 (15), 6419) from untreated cells and cells treated with the Fisetin derivatives for 1, 2 and 4 hr. Fisetin was used as a positive control. […] Protein concentrations were determined using the BCA protein assay (Pierce). Equal amounts of protein were solubilized in 2.5×SDS-sample buffer, separated on 10% SDS-polyacrylamide gels and transferred to nitrocellulose. Equal loading and transfer of the samples was confirmed by staining the nitrocellulose with Ponceau-S. Transfers were blocked for 1 hr at room temperature with 5% nonfat milk in TBS/0.1% Tween 20 and then incubated overnight at 4° C. in the primary antibody diluted in 5% BSA in TBS/0.05% Tween 20. The primary antibodies used were: anti-Nrf2 (#SC13032; 1/1000) from Santa Cruz Biotechnology (Santa Cruz, Calif.) and anti-β-actin (#5125; 1/20,000) from Cell Signaling (Beverly, Mass.). The transfers were rinsed with TBS/0.05% Tween 20 and incubated for 1 hr at room temperature in horseradish peroxidase-goat anti-rabbit or goat anti-mouse (Biorad, Hercules, Calif.) diluted 1/5000 in 5% nonfat milk in TBS/0.1% Tween 20. The immunoblots were developed with the Super Signal reagent (Pierce, Rockford, Ill.).
The transcription factor Nrf2 plays a key role in regulating GSH metabolism in many different cell types (Lewerenz, et al., Antioxidant & Redox Signaling. (2011) 14, 1449-1465). We have shown that Fisetin can induce Nrf2 and this correlates with its ability to enhance GSH levels (Maher, P. et al., Genes. Nutr. (2009) September 10). To determine if the derivatives which can maintain GSH levels do so by increasing Nrf2 we looked at Nrf2 levels in the nuclei of derivative-treated cells using Fisetin as a positive control (Table 4). […] This was particularly true for the derivatives based on the quinoline scaffold where none of them increased Nrf2 despite being very effective at maintaining GSH levels.

Structure (SMILES) | GSH (ability to maintain GSH) (HT22 cells) | PC12 diff'n (ability to induce PC12 cell differentiation) (PC12 cells) | Nrf2 (ability to induce the transcription factor Nrf2) (Nrf2)
O=c1c(O)c(-c2ccc(O)c(O)c2)oc2ccccc12 [CMS-04P, reference compound] | yes | yes | Yes
COc1cc(-c2ccc(O)c(O)c2)nc2ccccc12 [CMS-007, 4-methoxy-2-(3,4-dihydroxyphenyl) quinoline] | yes | no | No
Cc1cc(O)c(C(=O)/C=C/c2ccc(O)c(O)c2)cc1C [CMS-011, (E)-3-(3,4-dihydroxyphenyl)-1-(2-hydroxy-4,5-dimethylphenyl)prop-2-en-1-one] | yes | yes | Yes
CCOc1cc(-c2ccc(O)c(O)c2)nc2ccccc12 [CMS-023, 4-ethoxy-2-(3,4-dihydroxyphenyl) quinoline] | yes | yes | No
CC(C)Oc1cc(-c2ccc(O)c(O)c2)nc2ccccc12 [CMS-024, 4-isopropoxy-2-(3,4-dihydroxyphenyl) quinoline] | yes | yes | No
O=C(/C=C/c1ccc(O)c(O)c1)c1ccc2ccccc2c1O [CMS-034, (E)-3-(3,4-dihydroxyphenyl)-1-(1-hydroxynaphthalen-2-yl)prop-2-en-1-one] | yes | yes | Yes
O=c1c(O)c(-c2ccc(O)c(O)c2)oc2c1ccc1ccccc12 [CMS-040, 2-(3,4-dihydroxyphenyl)-3-hydroxy-4H-benzo[h]chromen-4-one] | no | yes | 
COc1cc(-c2oc3cc(C)c(C)cc3c(=O)c2O)ccc1OCc1ccccc1 [CMS-059, 2-(4-(benzyloxy)-3-methoxyphenyl)-3-hydroxy-6,7-dimethyl-4H-chromen-4-one] | no | no | 
COc1cc(-c2oc3cc(C)c(C)cc3c(=O)c2O)ccc1O [CMS-069, 3-hydroxy-2-(4-hydroxy-3-methoxyphenyl)-6,7-dimethyl-4H-chromen-4-one] | no | no | 
COc1ccc(/C=C/C(=O)c2cc(C)c(C)cc2O)cc1OCc1ccccc1 [CMS-086, (E)-3-(3-(benzyloxy)-4-methoxyphenyl)-1-(2-hydroxy-4,5-dimethylphenyl)prop-2-en-1-one] | yes | yes | Yes
Cc1cc2oc(-c3ccc(N(C)C)cc3)c(O)c(=O)c2cc1C [CMS-117, 2-(4-(dimethylamino)phenyl)-3-hydroxy-6,7-dimethyl-4H-chromen-4-one] | yes | no | No
CN(C)c1ccc(-c2oc3c(ccc4ccccc43)c(=O)c2O)cc1 [CMS-118, 2-(4-(dimethylamino)phenyl)-3-hydroxy-4H-benzo[h]chromen-4-one] | yes | no | No
Oc1ccc(-c2cc(OC3CCCC3)c3ccccc3n2)cc1O [CMS-121, 4-cyclopentyloxy-2-(3,4-dihydroxyphenyl) quinoline] | yes | yes | No
Cc1cc2oc(-c3ccc(N4CCCC4)cc3)c(O)c(=O)c2cc1C [CMS-122, 3-hydroxy-6,7-dimethyl-2-(4-(pyrrolidin-1-yl)phenyl)-4H-chromen-4-one] | yes | yes | No
O=c1c(O)c(-c2ccc(N3CCCC3)c(O)c2)oc2c1ccc1ccccc12 [CMS-140, 3-hydroxy-2-(3-hydroxy-4-(pyrrolidin-1-yl)phenyl)-4H-benzo[h]chromen-4-one] | Yes | Yes | No
O=c1c(O)c(-c2ccc(O)c(O)c2)oc2cc(O)ccc12 [Fisetin, 3,7,3′,4′-Tetrahydroxyflavone, reference compound] | yes | yes | Yes
